Source: patent publication US20210317134A1, “UBIQUITIN-SPECIFIC-PROCESSING PROTEASE 7 (USP7) MODULATORS AND USES THEREOF” (RAPT THERAPEUTICS, INC., priority 2019, published 2021)

Biological target: USP7 (Homo sapiens, UniProt Q93009)
Assay: USP7 inhibitory potency (Table 1)
Format: biochemical

USP7, sequence (Q93009 whole entry): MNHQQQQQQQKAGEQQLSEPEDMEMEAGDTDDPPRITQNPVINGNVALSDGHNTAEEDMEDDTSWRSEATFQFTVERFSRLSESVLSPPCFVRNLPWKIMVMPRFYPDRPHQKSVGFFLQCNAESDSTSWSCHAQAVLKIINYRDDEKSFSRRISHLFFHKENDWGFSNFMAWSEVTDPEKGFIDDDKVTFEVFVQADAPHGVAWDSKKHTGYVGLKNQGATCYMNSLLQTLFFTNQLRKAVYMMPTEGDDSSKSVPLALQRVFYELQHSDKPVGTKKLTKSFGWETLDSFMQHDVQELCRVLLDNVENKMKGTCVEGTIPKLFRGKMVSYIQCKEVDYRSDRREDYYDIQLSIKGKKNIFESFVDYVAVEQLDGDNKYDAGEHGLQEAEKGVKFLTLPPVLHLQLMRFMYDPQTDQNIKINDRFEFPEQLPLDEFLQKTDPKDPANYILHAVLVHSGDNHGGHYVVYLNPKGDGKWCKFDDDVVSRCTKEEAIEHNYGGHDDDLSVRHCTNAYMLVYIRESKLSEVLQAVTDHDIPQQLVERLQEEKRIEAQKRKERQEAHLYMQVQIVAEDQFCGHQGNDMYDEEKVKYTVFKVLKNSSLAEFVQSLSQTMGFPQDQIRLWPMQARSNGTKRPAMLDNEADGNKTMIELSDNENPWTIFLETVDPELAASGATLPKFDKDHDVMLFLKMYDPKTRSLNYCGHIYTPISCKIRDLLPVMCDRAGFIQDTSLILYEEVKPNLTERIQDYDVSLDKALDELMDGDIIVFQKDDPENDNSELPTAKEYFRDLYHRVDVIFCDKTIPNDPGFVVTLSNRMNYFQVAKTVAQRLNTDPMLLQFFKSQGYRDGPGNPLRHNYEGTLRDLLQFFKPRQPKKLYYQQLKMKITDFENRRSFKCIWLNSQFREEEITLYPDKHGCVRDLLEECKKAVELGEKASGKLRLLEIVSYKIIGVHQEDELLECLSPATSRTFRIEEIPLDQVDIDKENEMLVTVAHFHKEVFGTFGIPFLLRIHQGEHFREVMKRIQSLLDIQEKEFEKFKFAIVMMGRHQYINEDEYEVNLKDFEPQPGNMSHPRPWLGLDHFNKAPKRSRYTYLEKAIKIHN

Compound | IC50
CCC(N)c1cc2nccc(-c3cc(Cl)cc4c3O[C@@H](c3onc5c3CNCC5)C4)c2s1 (stereo partly drawn) [1-(7-((R)-5-chloro-2-(4,5,6,7-tetrahydroisoxazolo[4,3-c]pyridin-3-yl)-2,3-dihydrobenzofuran-7-yl)thieno[3,2-b]pyridin-2-yl)propan-1-amine] | 1000 to 10000 nM
CCC(O)(C(=O)N(C)C)c1cc2nccc(-c3cc(Cl)cc4c3O[C@@H](C(=O)N3CCNCC3)C4)c2s1 (stereo partly drawn) [2-(7-((R)-5-chloro-2-(piperazine-1-carbonyl)-2,3-dihydrobenzofuran-7-yl)thieno[3,2-b]pyridin-2-yl)-2-hydroxy-N,N-dimethylbutanamide] | < 1000 nM
Cc1cc2ncnc(-c3cc(Cl)cc4c3O[C@@H](C(=O)N3CCNCC3)C4)c2s1 [(R)-(5-chloro-7-(6-methylthieno[3,2-d]pyrimidin-4-yl)-2,3-dihydrobenzofuran-2-yl)(piperazin-1-yl)methanone] | < 1000 nM
CCC(O)c1cc2nccc(-c3cc(Cl)cc4c3O[C@@H](c3[nH]nc5c3CNCC5)C4)c2s1 (stereo partly drawn) [1-(7-((R)-5-chloro-2-(4,5,6,7-tetrahydro-2H-pyrazolo[4,3-c]pyridin-3-yl)-2,3-dihydrobenzofuran-7-yl)thieno[3,2-b]pyridin-2-yl)propan-1-ol] | < 1000 nM
O=C([C@H]1Cc2cc(Cl)cc(-c3ccnc4cc(CO)sc34)c2O1)N1CC[C@H](O)C1 [((R)-5-chloro-7-(2-(hydroxymethyl)thieno[3,2-b]pyridin-7-yl)-2,3-dihydrobenzofuran-2-yl)((S)-3-hydroxypyrrolidin-1-yl)methanone] | 10000 to 30000 nM
Clc1cc2c(c(-c3ccnc4cc(-c5cc[nH]n5)sc34)c1)O[C@@H](c1onc3c1CNCC3)C2 [(R)-3-(7-(2-(1H-pyrazol-3-yl)thieno[3,2-b]pyridin-7-yl)-5-chloro-2,3-dihydrobenzofuran-2-yl)-4,5,6,7-tetrahydroisoxazolo[4,3-c]pyridine] | < 1000 nM
OCC1Cc2nccc(-c3cc(Cl)cc4c3O[C@@H](c3onc5c3CNCC5)C4)c2O1 (stereo partly drawn) [(7-((R)-5-chloro-2-(4,5,6,7-tetrahydroisoxazolo[4,3-c]pyridin-3-yl)-2,3-dihydrobenzofuran-7-yl)-2,3-dihydrofuro[3,2-b]pyridin-2-yl)methanol] | 10000 to 30000 nM
O=C(Nc1ccc(F)cc1)c1cc2c(-c3cc(Cl)cc4c3OC(C(=O)N3CCNCC3)C4)ccnc2[nH]1 (stereo not drawn) [4-(5-chloro-2-(piperazine-1-carbonyl)-2,3-dihydrobenzofuran-7-yl)-N-(4-fluorophenyl)-1H-pyrrolo[2,3-b]pyridine-2-carboxamide] | 1000 to 10000 nM
CCC(O)c1cc2nccc(-c3cc(Cl)cc4c3O[C@@H](c3nn(C)c5c3CNCC5)C4)c2s1 (stereo partly drawn) [1-(7-((R)-5-chloro-2-(1-methyl-4,5,6,7-tetrahydro-1H-pyrazolo[4,3-c]pyridin-3-yl)-2,3-dihydrobenzofuran-7-yl)thieno[3,2-b]pyridin-2-yl)propan-1-ol] | < 1000 nM
O=C([C@H]1Cc2cc(Cl)cc(-c3ccnc4cc(CO)sc34)c2O1)N1CCn2nc(C(F)(F)F)nc2C1 [(R)-(5-chloro-7-(2-(hydroxymethyl)thieno[3,2-b]pyridin-7-yl)-2,3-dihydrobenzofuran-2-yl)(2-(trifluoromethyl)-5,6-dihydro-[1,2,4]triazolo[1,5-a]pyrazin-7(8H)-yl)methanone] | 1000 to 10000 nM
O=C([C@H]1CCc2cc(Cl)cc(-c3ccnc4cc(CO)sc34)c2O1)N1CCNCC1 [(R)-(6-chloro-8-(2-(hydroxymethyl)thieno[3,2-b]pyridin-7-yl)chroman-2-yl)(piperazin-1-yl)methanone] | < 1000 nM
CS(=O)(=O)NCc1cc2nccc(-c3cc(Cl)cc4c3O[C@@H](C(=O)N3CCNCC3)C4)c2s1 [(R)-N-((7-(5-chloro-2-(piperazine-1-carbonyl)-2,3-dihydrobenzofuran-7-yl)thieno[3,2-b]pyridin-2-yl)methyl)methanesulfonamide] | < 1000 nM
CCC(O)(CO)c1cc2nccc(-c3cc(Cl)cc4c3O[C@@H](C(=O)N3CCNCC3)C4)c2s1 (stereo partly drawn) [((2R)-5-chloro-7-(2-(1,2-dihydroxybutan-2-yl)thieno[3,2-b]pyridin-7-yl)-2,3-dihydrobenzofuran-2-yl)(piperazin-1-yl)methanone] | < 1000 nM
O=C1CCC(=O)N1Cc1ccc2c(-c3cc(Cl)cc4c3O[C@@H](c3onc5c3CNCC5)C4)ccnc2c1 [(R)-1-((4-(5-chloro-2-(4,5,6,7-tetrahydroisoxazolo[4,3-c]pyridin-3-yl)-2,3-dihydrobenzofuran-7-yl)quinolin-7-yl)methyl)pyrrolidine-2,5-dione] | 1000 to 10000 nM
O=C([C@H]1Cc2cc(Cl)cc(-c3ncnc4ccoc34)c2O1)N1CCNCC1 [(R)-(5-chloro-7-(furo[3,2-d]pyrimidin-4-yl)-2,3-dihydrobenzofuran-2-yl)(piperazin-1-yl)methanone] | 10000 to 30000 nM
Fc1ccc2c(-c3cc(Cl)cc4c3O[C@@H](c3onc5c3CNCC5)C4)ccnc2c1 [(R)-3-(5-chloro-7-(7-fluoroquinolin-4-yl)-2,3-dihydrobenzofuran-2-yl)-4,5,6,7-tetrahydroisoxazolo[4,3-c]pyridine] | < 1000 nM
CC(Cc1cc2nccc(-c3cc(Cl)cc4c3O[C@@H](C(=O)N3CCNCC3)C4)c2s1)NS(C)(=O)=O (stereo partly drawn) [N-(1-(7-((R)-5-chloro-2-(piperazine-1-carbonyl)-2,3-dihydrobenzofuran-7-yl)thieno[3,2-b]pyridin-2-yl)propan-2-yl)methanesulfonamide] | < 1000 nM
O=C1CCC(=O)N1Cc1cc2nccc(-c3cc(Cl)cc4c3O[C@@H](c3onc5c3CNCC5)C4)n2n1 [(R)-1-((7-(5-chloro-2-(4,5,6,7-tetrahydroisoxazolo[4,3-c]pyridin-3-yl)-2,3-dihydrobenzofuran-7-yl)pyrazolo[1,5-a]pyrimidin-2-yl)methyl)pyrrolidine-2,5-dione] | < 1000 nM
Cc1cc2ncnc(-c3cc(Cl)cc4c3O[C@@H](c3onc5c3CNCC5)C4)c2s1 [(R)-3-(5-chloro-7-(6-methylthieno[3,2-d]pyrimidin-4-yl)-2,3-dihydrobenzofuran-2-yl)-4,5,6,7-tetrahydroisoxazolo[4,3-c]pyridine] | < 1000 nM
Clc1cc2c(c(-c3ccnc4ccsc34)c1)O[C@H](c1onc3c1CNCC3)C2 [(S)-3-(5-chloro-7-(thieno[3,2-b]pyridin-7-yl)-2,3-dihydrobenzofuran-2-yl)-4,5,6,7-tetrahydroisoxazolo[4,3-c]pyridine] | < 1000 nM
OCc1ccc2c(-c3cc(Cl)cc4c3O[C@@H](c3onc5c3CNCC5)C4)ccnc2c1 [(R)-(4-(5-chloro-2-(4,5,6,7-tetrahydroisoxazolo[4,3-c]pyridin-3-yl)-2,3-dihydrobenzofuran-7-yl)quinolin-7-yl)methanol] | < 1000 nM

Other lines, results leading:

IC50 | Compound
1000 to 10000 nM | CN1CCC(CN2CCN(C(=O)C3Cc4cc(Cl)cc(-c5ccnc6[nH]ccc56)c4O3)CC2)CC1 (stereo not drawn) [(5-chloro-7-(1H-pyrrolo[2,3-b]pyridin-4-yl)-2,3-dihydrobenzofuran-2-yl)(4-((1-methylpiperidin-4-yl)methyl)piperazin-1-yl)methanone]
10000 to 30000 nM | O=C([C@H]1Cc2cc(Cl)cc(-c3ccnc4[nH]ccc34)c2O1)N1CCC(CCO)CC1 [(R)-(5-chloro-7-(1H-pyrrolo[2,3-b]pyridin-4-yl)-2,3-dihydrobenzofuran-2-yl)(4-(2-hydroxyethyl)piperidin-1-yl)methanone]
1000 to 10000 nM | O=C([C@@H]1Cc2cc(Cl)cc(-c3ccnc4cc(CO)sc34)c2O1)N1CCNCC1 [(S)-(5-chloro-7-(2-(hydroxymethyl)thieno[3,2-b]pyridin-7-yl)-2,3-dihydrobenzofuran-2-yl)(piperazin-1-yl)methanone]
1000 to 10000 nM | CCC1(CO)Cc2nccc(-c3cc(Cl)cc4c3O[C@@H](C(=O)N3CCNCC3)C4)c2C1 (stereo partly drawn) [((2R)-5-chloro-7-(6-ethyl-6-(hydroxymethyl)-6,7-dihydro-5H-cyclopenta[b]pyridin-4-yl)-2,3-dihydrobenzofuran-2-yl)(piperazin-1-yl)methanone]
< 1000 nM | O=C([C@H]1Cc2cc(Cl)cc(-c3ccnc4c3CCC4)c2O1)N1CCNCC1 [(R)-(5-chloro-7-(6,7-dihydro-5H-cyclopenta[b]pyridin-4-yl)-2,3-dihydrobenzofuran-2-yl)(piperazin-1-yl)methanone]
< 1000 nM | Cn1ccc(=O)n(Cc2cc3nccc(-c4cc(Cl)cc5c4O[C@@H](C(=O)N4CCNCC4)C5)c3s2)c1=O [(R)-3-((7-(5-chloro-2-(piperazine-1-carbonyl)-2,3-dihydrobenzofuran-7-yl)thieno[3,2-b]pyridin-2-yl)methyl)-1-methylpyrimidine-2,4(1H,3H)-dione]
< 1000 nM | O=C(C1Cc2cc(Cl)cc(-c3ccnc4c3CCC4)c2O1)N1CCNCC1 (stereo not drawn) [(5-chloro-7-(6,7-dihydro-5H-cyclopenta[b]pyridin-4-yl)-2,3-dihydrobenzofuran-2-yl)(piperazin-1-yl)methanone]
1000 to 10000 nM | O=C([C@H]1Cc2cc(Cl)cc(-c3ccnc4ccsc34)c2O1)N1CCN2CCCC2C1 (stereo partly drawn) [((R)-5-chloro-7-(thieno[3,2-b]pyridin-7-yl)-2,3-dihydrobenzofuran-2-yl)(hexahydropyrrolo[1,2-a]pyrazin-2(1H)-yl)methanone]
1000 to 10000 nM | CN(C)[C@H]1CCN(C(=O)[C@H]2Cc3cc(Cl)cc(-c4ccnc5ccsc45)c3O2)C1 [((R)-5-chloro-7-(thieno[3,2-b]pyridin-7-yl)-2,3-dihydrobenzofuran-2-yl)((S)-3-(dimethylamino)pyrrolidin-1-yl)methanone]
1000 to 10000 nM | O=C(C1Cc2cc(Cl)cc(-c3ccnc4[nH]ccc34)c2O1)N1CCN(c2ccncn2)CC1 (stereo not drawn) [(5-chloro-7-(1H-pyrrolo[2,3-b]pyridin-4-yl)-2,3-dihydrobenzofuran-2-yl)(4-(pyrimidin-4-yl)piperazin-1-yl)methanone]
< 1000 nM | O=C(C1Cc2cc(Cl)cc(-c3ccnc4[nH]ccc34)c2O1)N1CCNCC1 (stereo not drawn) [(5-chloro-7-(1H-pyrrolo[2,3-b]pyridin-4-yl)-2,3-dihydrobenzofuran-2-yl)(piperazin-1-yl)methanone]
1000 to 10000 nM | O=C(C1Cc2cc(Cl)cc(-c3ccnc4cc[nH]c34)c2O1)N1CCNCC1 (stereo not drawn) [(5-chloro-7-(1H-pyrrolo[3,2-b]pyridin-7-yl)-2,3-dihydrobenzofuran-2-yl)(piperazin-1-yl)methanone]
